Measured values: PubChem BioAssay AID2060888 (Molecular Pharmacology Branch, DTP, NCI, 2025)

Tested on: 695427-040-R-J1-PDC complex spheroid viability
Test: Anticancer human tumor 695427-040-R-J1-PDC patient-derived colon adenocarcinoma cell line growth inhibition [RAS]
Details: for IC50: curve of first compound; for viability, T/C: stronger effect = lower value
How it was run: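 Tumour cells grown as complex spheroids with HUVEC endothelial cells and mesenchymal stem cells, treated with RAS pathway inhibitor combinations. Each agent spans half-log steps from near clinical Cmax, or 10 microM where Cmax is unknown.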

[1] = second compound 0.000949 µM, first compound 0.0316 µM
[2] = second compound 0.000949 µM, first compound 0.1 µM
[3] = second compound 0.000949 µM, first compound 0.316 µM
[4] = second compound 0.000949 µM, first compound 1 µM
[5] = second compound 0.000949 µM, first compound 3.16 µM
[6] = second compound 0.000949 µM, first compound 10 µM
[7] = second compound 0.003 µM, first compound 0.0316 µM
[8] = second compound 0.003 µM, first compound 0.1 µM
[9] = second compound 0.003 µM, first compound 0.316 µM
[10] = second compound 0.003 µM, first compound 1 µM
[11] = second compound 0.003 µM, first compound 3.16 µM
[12] = second compound 0.003 µM, first compound 10 µM
[13] = second compound 0.00949 µM, first compound 0.0316 µM
[14] = second compound 0.00949 µM, first compound 0.1 µM
[15] = second compound 0.00949 µM, first compound 0.316 µM
[16] = second compound 0.00949 µM, first compound 1 µM
[17] = second compound 0.00949 µM, first compound 3.16 µM
[18] = second compound 0.00949 µM, first compound 10 µM
[19] = second compound 0.03 µM, first compound 0.0316 µM
[20] = second compound 0.03 µM, first compound 0.1 µM
[21] = second compound 0.03 µM, first compound 0.316 µM
[22] = second compound 0.03 µM, first compound 1 µM
[23] = second compound 0.03 µM, first compound 3.16 µM
[24] = second compound 0.03 µM, first compound 10 µM
[25] = second compound 0.0949 µM, first compound 0.0316 µM
[26] = second compound 0.0949 µM, first compound 0.1 µM
[27] = second compound 0.0949 µM, first compound 0.316 µM
[28] = second compound 0.0949 µM, first compound 1 µM
[29] = second compound 0.0949 µM, first compound 3.16 µM
[30] = second compound 0.0949 µM, first compound 10 µM
[31] = second compound 0.3 µM, first compound 0.0316 µM
[32] = second compound 0.3 µM, first compound 0.1 µM
[33] = second compound 0.3 µM, first compound 0.316 µM
[34] = second compound 0.3 µM, first compound 1 µM
[35] = second compound 0.3 µM, first compound 3.16 µM
[36] = second compound 0.3 µM, first compound 10 µM
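Note: viability read after seven days of drug exposure.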
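Throughout, for viability, T/C: 100% = DMSO vehicle control viability.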

Structure (SMILES): CC(Nc1ccc2c(c1)OCCn1cc(N3C(=O)OCC3C(F)F)nc1-2)C(N)=O (centres undefined) + CCn1c(-c2cc(N3CCN(C)CC3)cnc2C(C)OC)c2c3cc(ccc31)-c1csc(n1)CC(NC(=O)C1CC1C)C(=O)N1CCCC(N1)C(=O)OCC(C)(C)C2
- IC50 (second compound 0.000949 µM): 855 nM
- IC50 (second compound 0.003 µM): 673 nM
- IC50 (second compound 0.00949 µM): 581 nM
- IC50 (second compound 0.03 µM): < 31.6 nM
- IC50 (second compound 0.0949 µM): < 31.6 nM
- IC50 (second compound 0.3 µM): < 31.6 nM
- viability, T/C [1]: 61.4%
- viability, T/C [2]: 72.4%
- viability, T/C [3]: 69.7%
- viability, T/C [4]: 47.1%
- viability, T/C [5]: 39.1%
- viability, T/C [6]: 38%
- viability, T/C [7]: 100%
- viability, T/C [8]: 70.5%
- viability, T/C [9]: 59.5%
- viability, T/C [10]: 41.9%
- viability, T/C [11]: 45.6%
- viability, T/C [12]: 41.9%
- viability, T/C [13]: 86.2%
- viability, T/C [14]: 66.2%
- viability, T/C [15]: 54%
- viability, T/C [16]: 49.8%
- viability, T/C [17]: 32.2%
- viability, T/C [18]: 25.6%
- viability, T/C [19]: 45.6%
- viability, T/C [20]: 48.3%
- viability, T/C [21]: 32.2%
- viability, T/C [22]: 27.1%
- viability, T/C [23]: 26.6%
- viability, T/C [24]: 22.3%
- viability, T/C [25]: 35%
- viability, T/C [26]: 33.3%
- viability, T/C [27]: 31.4%
- viability, T/C [28]: 19.1%
- viability, T/C [29]: 21.3%
- viability, T/C [30]: 14.6%
- viability, T/C [31]: 36.1%
- viability, T/C [32]: 22.2%
- viability, T/C [33]: 24.3%
- viability, T/C [34]: 17.1%
- viability, T/C [35]: 14.9%
- viability, T/C [36]: 13.7%

Structure (SMILES): C[C@@H](NC(=O)c1ncnc(N)c1Cl)c1ncc(C(=O)Nc2cc(C(F)(F)F)c(Cl)cn2)s1 + CCn1c(-c2cc(N3CCN(C)CC3)cnc2C(C)OC)c2c3cc(ccc31)-c1csc(n1)CC(NC(=O)C1CC1C)C(=O)N1CCCC(N1)C(=O)OCC(C)(C)C2
- IC50 (second compound 0.000949 µM): > 10000 nM
- IC50 (second compound 0.003 µM): > 10000 nM
- IC50 (second compound 0.00949 µM): > 10000 nM
- IC50 (second compound 0.03 µM): > 10000 nM
- IC50 (second compound 0.0949 µM): > 10000 nM
- IC50 (second compound 0.3 µM): < 31.6 nM
- viability, T/C [1]: 77.4%
- viability, T/C [2]: 94%
- viability, T/C [3]: 84.1%
- viability, T/C [4]: 87.6%
- viability, T/C [5]: 108%
- viability, T/C [6]: 78.5%
- viability, T/C [7]: 117%
- viability, T/C [8]: 91%
- viability, T/C [9]: 99.6%
- viability, T/C [10]: 85.9%
- viability, T/C [11]: 117%
- viability, T/C [12]: 70.1%
- viability, T/C [13]: 95.3%
- viability, T/C [14]: 83.4%
- viability, T/C [15]: 83.6%
- viability, T/C [16]: 84.4%
- viability, T/C [17]: 85.6%
- viability, T/C [18]: 53.1%
- viability, T/C [19]: 65.8%
- viability, T/C [20]: 71%
- viability, T/C [21]: 76.3%
- viability, T/C [22]: 72.4%
- viability, T/C [23]: 81.3%
- viability, T/C [24]: 55.6%
- viability, T/C [25]: 56.2%
- viability, T/C [26]: 58.2%
- viability, T/C [27]: 58.4%
- viability, T/C [28]: 48.7%
- viability, T/C [29]: 72.4%
- viability, T/C [30]: 51.2%
- viability, T/C [31]: 36.4%
- viability, T/C [32]: 44.2%
- viability, T/C [33]: 44.4%
- viability, T/C [34]: 45.4%
- viability, T/C [35]: 50.1%
- viability, T/C [36]: 33%
